Source: the supplement of paper PMC10307832

What was measured:
Assay in all cases: relative viability (nuclei count vs DMSO), 5 days (fraction); higher = more cells survive
Veliparib + OSI-027 = compound: C[C@]1(c2nc3c(C(N)=O)cccc3[nH]2)CCCN1 [Veliparib] + COc1cccc2cc(-c3nc([C@H]4CC[C@H](C(=O)O)CC4)n4ncnc(N)c34)[nH]c12 [OSI-027] (partner 0.5 µM)
Method in brief: (§1)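 Each reported value is a median over duplicate plates. It expresses relative viability: treated-well nuclei count divided by vehicle-well nuclei count. Lung cancer cell lines in 1536-well plates were dosed by pin tool a day after seeding, alone with one drug or with a fixed anchor-drug dose plus five library-drug doses (not always all listed) in √10 steps, and nuclei were counted after 5 days.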

Veliparib + Vorinostat = compound: C[C@]1(c2nc3c(C(N)=O)cccc3[nH]2)CCCN1 [Veliparib] + O=C(CCCCCCC(=O)Nc1ccccc1)NO [Vorinostat] (partner 1 µM)
Method in brief: as §1

Veliparib + Linsitinib = compound: C[C@]1(c2nc3c(C(N)=O)cccc3[nH]2)CCCN1 [Veliparib] + C[C@]1(O)C[C@@H](c2nc(-c3ccc4ccc(-c5ccccc5)nc4c3)c3c(N)nccn32)C1 [Linsitinib] (partner 1 µM)
Method in brief: as §1

Veliparib + Alpelisib = compound: C[C@]1(c2nc3c(C(N)=O)cccc3[nH]2)CCCN1 [Veliparib] + Cc1nc(NC(=O)N2CCC[C@H]2C(N)=O)sc1-c1ccnc(C(C)(C)C(F)(F)F)c1 [Alpelisib] (partner 2 µM)
Method in brief: as §1

Cell Line	relative viability (Veliparib + OSI-027; first compound 0.02 µM)	relative viability (Veliparib + OSI-027; first compound 0.06325 µM)	relative viability (Veliparib + OSI-027; first compound 0.2 µM)	relative viability (Veliparib + OSI-027; first compound 0.6325 µM)	relative viability (Veliparib + OSI-027; first compound 2 µM)	relative viability (Veliparib + Vorinostat; first compound 0.02 µM)	relative viability (Veliparib + Vorinostat; first compound 0.06325 µM)	relative viability (Veliparib + Vorinostat; first compound 0.2 µM)	relative viability (Veliparib + Vorinostat; first compound 0.6325 µM)	relative viability (Veliparib + Vorinostat; first compound 2 µM)	relative viability (Veliparib + Linsitinib; first compound 0.02 µM)	relative viability (Veliparib + Linsitinib; first compound 0.06325 µM)	relative viability (Veliparib + Linsitinib; first compound 0.2 µM)	relative viability (Veliparib + Linsitinib; first compound 0.6325 µM)	relative viability (Veliparib + Linsitinib; first compound 2 µM)	relative viability (Veliparib + Alpelisib; first compound 0.02 µM)	relative viability (Veliparib + Alpelisib; first compound 0.06325 µM)	relative viability (Veliparib + Alpelisib; first compound 0.2 µM)	relative viability (Veliparib + Alpelisib; first compound 0.6325 µM)	relative viability (Veliparib + Alpelisib; first compound 2 µM)
UMC-11	0.508	0.471	0.472	0.469	0.415	0.432	0.354	0.365	0.381	0.394	1.06	1	1.08	0.963	0.961	1.01	0.941	1.14	0.947	0.972
NCI-H1437	0.694	0.959	0.878	0.759	0.844	0.886	0.746	0.798	0.887	0.813	1.01	1.04	1.02	1.03	1.08	0.898	0.977	0.98	0.921	0.889
LU99A	0.297	0.303	0.27	0.266	0.323	0.513	0.477	0.396	0.441	0.402	0.579	0.61	0.565	0.475	0.525	0.504	0.459	0.544	0.509	0.569
NCI-H1755	0.767	0.713	0.683	0.586	0.645	0.758	0.774	0.725	0.723	0.714	1	0.972	0.972	0.968	0.963	0.898	0.939	0.942	0.881	0.922
LXF-289	0.836	0.781	0.799	0.711	0.759	0.809	0.812	0.743	0.655	0.794	0.93	0.955	0.954	0.922	0.925	1.02	1.02	0.997	1.01	1.06
NCI-H460	0.677	0.63	0.621	0.583	0.632	0.693	0.608	0.599	0.602	0.635		0.806	0.664	0.527	0.72		0.342	0.539	0.347	0.441
